Assay results reported in US10870634B2, “Histone demethylase inhibitors” (CELGENE QUANTICEL RESEARCH, INC., priority 2016, dated 2020).

Molecular target: T1, FBXL10 (Homo sapiens, UniProt Q8NHM5)
T1 construct: purchased BPS Bioscience 50120
T1 sequence (Q8NHM5 1-650): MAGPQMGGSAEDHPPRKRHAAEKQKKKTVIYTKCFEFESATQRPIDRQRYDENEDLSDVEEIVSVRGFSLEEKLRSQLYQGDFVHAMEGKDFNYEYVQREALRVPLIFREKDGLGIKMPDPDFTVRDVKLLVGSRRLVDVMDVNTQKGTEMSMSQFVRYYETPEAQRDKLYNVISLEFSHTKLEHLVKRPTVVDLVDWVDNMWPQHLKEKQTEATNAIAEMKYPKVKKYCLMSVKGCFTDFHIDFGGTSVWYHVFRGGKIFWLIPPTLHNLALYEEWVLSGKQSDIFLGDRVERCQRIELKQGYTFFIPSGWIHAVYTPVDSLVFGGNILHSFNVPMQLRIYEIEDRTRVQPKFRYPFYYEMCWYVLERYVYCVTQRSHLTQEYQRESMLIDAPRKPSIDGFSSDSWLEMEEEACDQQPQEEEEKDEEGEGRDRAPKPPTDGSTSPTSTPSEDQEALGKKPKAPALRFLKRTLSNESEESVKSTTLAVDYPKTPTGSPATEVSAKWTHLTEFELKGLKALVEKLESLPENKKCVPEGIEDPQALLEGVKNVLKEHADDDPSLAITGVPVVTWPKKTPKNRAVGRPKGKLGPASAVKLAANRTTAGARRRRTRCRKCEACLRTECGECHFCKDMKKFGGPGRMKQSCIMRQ
Test: FBXL10 in vitro enzyme inhibition assay (AlphaScreen)
Type: biochemical
Details: 0.3 nM FBXL10, 30 nM H3K36me2-biotin peptide, 0.2 μM alpha-ketoglutaric acid
Excerpt: This assay determines the ability of a test compound to inhibit FBXL11, FRXL10, and PHF8 demethylase activity. Baculovirus-expressed FBXL11 (GenBank Accession # NM_012308, AA1-1162) was purchased from BPS Bioscience (Cat #50102). Baculovirus-expressed FBXL10 (GenBank Accession # NM_032590, AA 1-650) was purchased from BPS Bioscience (Cat #50120), Baculovirus-expressed PHF8 (GenBank Accession NP_055922.1) was purchased from Active Motif (Cat #31435).
The ability of test compounds to inhibit the activity of FBXM10 was determined in 384-well plate format under the following reaction conditions: 0.3 nM FBXL10, 30 nM H3K36me2-biotin labeled peptide (Anaspec cat #64442), 0.2 μM alpha-ketoglutaric acid in assay buffer of 50 mM HEPES, pH 7.3, 0.005% Brij35, 0.5 mM TCEP, 0.2 mg/ml BSA, 50 μM sodium L-ascorbate, 5 μM ammonium ironll sulfate. Reaction product was determined quantitatively by AlphaScreen detection after the addition of detection reagents anti-H3K36me1 antibody, AlphaScreen® Streptavidin-coated Donor beads, and AlphaScreen® Protein A Acceptor beads in 50 mM HEPES, pH 7.3, 10 mM NaCl, 0.005% Brij35, 5 mM EDTA, 2 mg/ml BSA to a final 10 μg/ml beads.
The assay reaction was initiated by the following: 3 μl of the mixture of 90 nM H3K36me2-biotin labeled peptide and 0.6 μM alpha-ketoglutaric acid with 3 μl of 11-point serial diluted inhibitor in 3% DMSO were added to each well of 384-well Proxiplate (Perkin Elmer), followed by e addition of 3 μl of 0.9 nM FBXL10 to initiate the reaction. The reaction mixture was incubated at room temp for 1 hr. and terminated by the addition of 3 μl of appropriate dilution of anti-H3K36me1 antibody in 50 mM HEPES, pH 7.3, 10 mM NaCl, 0.005% Brij35, 5 mM EDTA, and 2 mg/ml BSA. […] Plates were read by EnVision Multilabel Reader in AlphaScreen mode after minimum 2 hr incubation at room temp. […]
The ability to inhibit demethylase activity was quantified and the respective IC50 value was determined for substituted triazolylpyridine derivative compounds. […]

Row | IC50 | SMILES
1 | 1000 to 10000 nM | FC(F)(F)c1[nH]nnc1-c1ccncc1NCC1CCCc2ccccc21 (stereo not drawn) [Example 3, N-[(1,2,3,4-tetrahydronaphthalen-1-yl)methyl]-4-[5-(trifluoromethyl)-1H-1,2,3-triazol-4-yl]pyridine-3-amine]
2 | 1000 to 10000 nM | Fc1ccc(Cl)cc1Nc1cnccc1-c1nn[nH]c1C(F)(F)F [Example 2, N-(5-chloro-2-fluorophenyl)-4-[5-(trifluoromethyl)-1H-1,2,3-triazol-4-yl]pyridin-3-amine]
3 | 100 to 1000 nM | Fc1cnccc1-c1nn[nH]c1C(F)(F)F [Example 1, 3-fluoro-4-[5-(trifluoromethyl)-1H-1,2,3-triazol-4-yl]pyridine]
